What all share (format): functional
Holding throughout (settings): Cavia porcellus

Experiment [1] concerns Ileum. The experiment is described as follows: Inhibition of spasmogen response in guinea pig ileum at 10 ug/mL.
In experiment [2] the test system is Ileum. The experiment is described as follows: Inhibition of spasmogen response in guinea pig ileum at 2.5 ug/mL.
The subject of experiment [3] is Ileum. The experiment is described as follows: Inhibition of spasmogen response in guinea pig ileum at 5 ug/mL.

This passage reports inhibition results from ChEMBL document CHEMBL1150749, “Novel Cleistanthane Diterpenoids from Pogostemon auricularis” (1988).

For orientation: inhibition means the drop in the measured response relative to a control, in per cent. Read a low inhibition as a weak effect.

Take `C=C[C@H]1C(=C)CC[C@H]2[C@H]1[C@@H](OC(C)=O)C[C@@H]1[C@]2(C)CCC[C@@]1(C)C(=O)O`: the inhibition at 10 µg/mL in the experiment with Ileum [1] is 69%. Further, in the experiment on Ileum [2], the inhibition at 2.5 µg/mL amounted to 10%. The compound further displayed an inhibition at 5 µg/mL with Ileum [3] of 19%.
